The target in this assay is T1, bovine serum albumin (BSA) (Bos taurus, UniProt P02769).
T1 construct: gene ALB; native plasma protein, commercial BSA fraction V (Merck), mature single chain of 583 residues, no further purification
As to the kind of experiment: Trp fluorescence quenching. The assay is classed as binding. The conditions noted are these: pH 7.4, room temperature, BSA 1.5 μM, double-log. An excerpt: Trp fluorescence quenching on bovine serum albumin (BSA)

Molecules are shown by their SMILES.

T1 sequence (P02769 25-607): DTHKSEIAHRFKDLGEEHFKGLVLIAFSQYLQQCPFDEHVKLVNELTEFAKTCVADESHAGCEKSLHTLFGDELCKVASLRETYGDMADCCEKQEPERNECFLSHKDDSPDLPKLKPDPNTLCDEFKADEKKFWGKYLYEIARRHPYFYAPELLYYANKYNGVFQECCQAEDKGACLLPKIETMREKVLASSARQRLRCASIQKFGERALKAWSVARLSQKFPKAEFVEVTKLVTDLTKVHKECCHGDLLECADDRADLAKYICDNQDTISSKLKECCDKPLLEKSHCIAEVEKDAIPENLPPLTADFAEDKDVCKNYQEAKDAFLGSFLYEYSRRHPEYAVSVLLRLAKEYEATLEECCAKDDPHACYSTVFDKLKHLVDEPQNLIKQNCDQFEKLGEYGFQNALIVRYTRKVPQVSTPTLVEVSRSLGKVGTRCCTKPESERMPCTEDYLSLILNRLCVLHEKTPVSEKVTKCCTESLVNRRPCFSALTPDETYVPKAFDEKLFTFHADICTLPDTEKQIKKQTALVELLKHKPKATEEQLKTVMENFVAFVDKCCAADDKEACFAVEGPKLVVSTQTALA

For the compound `COc1ccc(-c2csc(COc3cc(C)ccc3C(C)C)n2)cc1` [4a, 2-((2-isopropyl-5-methylphenoxy)methyl)-4-(4-methoxyphenyl)thiazole], the “Kb × 10^4 (M^-1)” value was 6.60 × 10^4 M^-1.
Take `Cc1ccc(C(C)C)c(OCC(=NNc2nc(-c3ccc4ccccc4c3)cs2)c2ccccc2)c1` [7d, 2-(2-(2-(2-isopropyl-5-methylphenoxy)-1-phenylethylidene)hydrazineyl)-4-(naphthalen-2-yl)thiazole]: the “Kb × 10^4 (M^-1)” value is 9.14 × 10^4 M^-1.
On to `Cc1ccc(C(C)C)c(OCC(=NNc2nc(-c3ccc(Cl)cc3)cs2)c2ccccc2)c1` [7b, 4-(4-chlorophenyl)-2-(2-(2-(2-isopropyl-5-methylphenoxy)-1-phenylethylidene)hydrazineyl)thiazole], for which the “Kb × 10^4 (M^-1)” value is 18.02 × 10^4 M^-1.
On to `Cc1ccc(C(C)C)c(OCc2nc(-c3ccc(Cl)cc3)cs2)c1` [4b, 4-(4-chlorophenyl)-2-((2-isopropyl-5-methylphenoxy)methyl)thiazole], for which the “Kb × 10^4 (M^-1)” value is reported as 6.98 × 10^4 M^-1.
The figure for `Cc1ccc(C(C)C)c(OCC(=NNc2nc(-c3ccc(Br)cc3)cs2)c2ccccc2)c1` [7c, 4-(4-bromophenyl)-2-(2-(2-(2-isopropyl-5-methylphenoxy)-1-phenylethylidene)hydrazineyl)thiazole] is 1.85 × 10^4 M^-1; for `Cc1ccc(C(C)C)c(OCc2nc(-c3ccc(Br)cc3)cs2)c1` [4c, 4-(4-bromophenyl)-2-((2-isopropyl-5-methylphenoxy)methyl)thiazole] it is 2.61 × 10^4 M^-1.
As for `COc1ccc(-c2csc(NN=C(COc3cc(C)ccc3C(C)C)c3ccccc3)n2)cc1` [7a, 2-(2-(2-(2-isopropyl-5-methylphenoxy)-1-phenylethylidene)hydrazineyl)-4-(4-methoxyphenyl)thiazole], the “Kb × 10^4 (M^-1)” value was 5.64 × 10^4 M^-1.
For the compound `Cc1ccc(C(C)C)c(OCc2nc(-c3ccc4ccccc4c3)cs2)c1` [4d, 2-((2-isopropyl-5-methylphenoxy)methyl)-4-(naphthalen-2-yl)thiazole], the “Kb × 10^4 (M^-1)” value is recorded as 8.51 × 10^4 M^-1.

The record behind these values is PMC7179180, “Novel 2,4-Disubstituted-1,3-Thiazole Derivatives: Synthesis, Anti-Candida Activity Evaluation and Interaction with Bovine Serum Albumine” (Molecules, 2020).
